According to PMC3904085 (Frontiers in Neuroscience, 2014):
Read-outs that look alike come from different tables or passages of the source.

How the values were obtained:
C57Bl/6 mice = assay: DRL 36-s schedule of reinforcement in wild-type mice; type: in vivo, mouse; conditions: for Lever Presses Mean / Reinforcers Mean: WT mice DRL-36-s, raw data
Text: (§1) The levers in these chambers were mounted on one wall with an adjacent food magazine next to the lever in the middle of the wall. A reinforced response caused a clicker apparatus to activate and the pellet feeder to deposit one 45-mg sucrose pellet (BioServ, Frenchtown, NJ) into the food magazine. The house light, which was mounted on the ceiling, was turned on when the session began, remained on throughout the entire session, and was turned off at the end of the session. Each experimental chamber was enclosed in a melamine sound-attenuating cubicle and equipped with a white noise generator to provide masking noise.
(§2) Each mouse was initially trained under a variable time 60-s operant schedule for 5 days, followed by fixed ratio-1 ratio schedule for 5 days. After the mice had acquired lever-pressing behavior, they were trained during daily DRL 6-s sessions for ~1 week, then mice progressed through weekly ascending DRL requirements (12, 18, 24, 30 s) before moving to DRL 36-s sessions. […] Experimental sessions lasted for 45 min and were conducted 5 days/week during light hours.
(§3) Drugs were administered to the animals once or twice weekly with at least 1 week between subsequent drugs to minimize possible carryover effects. Drug treatments were administered on Tuesdays and Fridays. No treatments were administered on other test days. Wednesdays were control days. “Control” behavior was calculated as the pooled mean lever presses or reinforcers received during Wednesday sessions across all Wednesdays for the duration of each study. Performance was normalized to percent of control by dividing total responses (or reinforcers) for each drug or vehicle treatment by the mean number of responses (reinforcers) in the respective pooled control condition, multiplied by 100.
(§4) The data analyses were conducted on the raw response and reinforcement data. All behavioral data are expressed as the mean ± s.e.m. normalized to the control condition.

Sprague–Dawley rats = assay: DRL 72-s schedule of reinforcement in rats; type: in vivo, rat; conditions: for Lever Presses Mean / Reinforcers Mean: HSD rats DRL-72-s, raw data
Text: Each chamber was enclosed in a melamine sound-attenuating cubicle. A white noise generator provided masking noise. The interior of each chamber consisted of three levers mounted on one wall with a house light mounted on the opposite wall. The house light was turned on at initiation of each test session and was turned off at the termination of each session. A water access port was situated next to the lever in the middle of the wall, wherein a reinforced response caused a clicker apparatus to sound paired with a dipper (0.02-ml cup) to be lifted from a water trough to an opening in the floor of the access port for 4 s.
Rats were initially trained under an alternative fixed ratio 1 water reinforcement schedule with a fixed 1-min time schedule for automatic reinforcement. Thus, each response was reinforced, with water also provided every minute in the absence of a response. […] Following acquisition of lever-pressing behavior, rats were trained daily on DRL 18-s sessions for ~2 weeks, following which they were advanced to DRL 72-s sessions. Responding on these sessions became stable after ~8 weeks. Experimental test sessions lasted for 1 h and were conducted 5 days/week during light hours.
as §3, §4

[1] = system: mice lacking OX2 receptors; assay: DRL 36-s schedule of reinforcement in OX2 KO mice; type: in vivo, mouse; conditions: for Lever Presses Mean / Reinforcers Mean: OX2 KO mice DRL-36-s, raw data
Text: Rats were acclimated to housing conditions for 4 days, followed by sham dosing once daily for 3 days, prior to the experiment. For DRL experiments, male Sprague–Dawley rats weighing between 300 and 350 g at the beginning of the behavioral experiments (Holtzman, Madison, WI) were housed in pairs. For mouse DRL studies, male C57Bl/6 mice (Taconic Farms, Hudson, NY) or mice lacking either OX1 or OX2 receptors, around 8 weeks of age, were obtained from private breeding colonies at Taconic Farms (Hudson, NY). OX1 and OX2 receptor knockout mice were generated using in vitro fertilization of embryos in C57Bl/6 female mice with sperm harvested from male mice obtained from the University of Texas Southwestern Medical Center (Dallas, TX), and backcrossed for at least 10 generations. Mice and rats were housed in separate colony rooms, which were maintained at 22°C and 60% relative humidity. For rat DRL experiments, water was available for a 20-min period following the daily behavioral session. Based on recommendations from the animal care and use committee, the mouse DRL assay was developed using food deprivation rather than water deprivation. […] All experiments were conducted during the light cycle and in compliance with the Guide for the Care and Use of Laboratory Animals under protocols approved by a local animal care and use committee.
as §1, §2, §3, §4

human OX2 receptors [2] = molecular target: T1, human OX2 receptors (Homo sapiens, UniProt O43614); assay: biochemical
T1 sequence (O43614 1-444): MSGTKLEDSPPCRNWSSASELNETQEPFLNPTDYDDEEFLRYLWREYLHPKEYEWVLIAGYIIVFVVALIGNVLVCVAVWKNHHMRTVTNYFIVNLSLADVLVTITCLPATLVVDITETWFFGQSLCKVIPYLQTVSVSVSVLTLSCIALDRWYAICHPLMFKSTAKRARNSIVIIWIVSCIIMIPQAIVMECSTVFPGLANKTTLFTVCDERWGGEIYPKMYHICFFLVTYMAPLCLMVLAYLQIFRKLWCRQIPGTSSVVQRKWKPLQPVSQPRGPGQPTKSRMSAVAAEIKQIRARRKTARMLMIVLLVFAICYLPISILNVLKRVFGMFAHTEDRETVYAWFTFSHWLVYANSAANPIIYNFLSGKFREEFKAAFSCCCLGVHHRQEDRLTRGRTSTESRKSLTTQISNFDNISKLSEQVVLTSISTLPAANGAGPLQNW
Protocol: Briefly, the membranes were isolated by homogenizing cell pellet in 30 ml (w/v) 50 mM Tris buffer (pH 7.4) containing Roche Complete EDTA free protease tablets. […] All binding studies were conducted at a final volume of 200 μl. […] Then 300 μl of this solution was placed in column B on a Nunc polypropylene 96-well plate (Thermo Fisher Scientific, Inc., Rochester, NY). Serial dilutions were then made using a Biomek 2000 (Beckman Coulter, Inc., Fullerton, CA) from a starting concentration of 40 μM. […] All binding was terminated by rapid filtration using a TOMTEC 96-well cell harvester (Hamden, CT) through GF/A filters that had been presoaked with 0.3% polyethyleneimine. The filters were washed with 5.0 ml ice-cold 50 mM Tris buffer (pH 7.4) and air-dried overnight. […] Protein concentrations were measured using Coomassie Protein Plus Assay Reagent (Pierce, Rockford, IL) and serum albumin standards.

human OX2 receptors [3] = molecular target: T1, human OX2 receptors; assay: Intracellular calcium mobilization (FLIPR), antagonist mode vs EC70 orexin-A; type: cell-based; set-up: expressed in transfected cells; conditions: HEK293 cells, mean ± s.e.m. (n); for Kb: read-out: Functional antagonist activity, Kb hOX2
[4] = C57Bl/6 mice DRL-36-s, significant at 100 mg/kg (Figure 5B legend)
[5] = dose 100 mg/kg, listed as almorexant inactive
[6] = dose 100 mg/kg PO, listed as almorexant inactive, 100 mg/kg

CNC(=O)[C@@H](c1ccccc1)N1CCc2cc(OC)c(OC)cc2[C@@H]1CCc1ccc(C(F)(F)F)cc1 [Almorexant (S)]
Lever presses emitted (C57Bl/6 mice; [4]): 47 % of control | Reinforcers received (C57Bl/6 mice; [4]): > 400 % of control | Lever Presses Mean (C57Bl/6 mice; dose 10 mg/kg): 174.25 | Reinforcers Mean (C57Bl/6 mice; dose 10 mg/kg): 14.00 | Lever Presses Mean (C57Bl/6 mice; dose 20 mg/kg): 161.13 | Reinforcers Mean (C57Bl/6 mice; dose 20 mg/kg): 15.50 | Lever Presses Mean (C57Bl/6 mice; dose 40 mg/kg): 172.38 | Reinforcers Mean (C57Bl/6 mice; dose 40 mg/kg): 20.25 | Lever Presses Mean (C57Bl/6 mice; dose 100 mg/kg): 114.88 | Reinforcers Mean (C57Bl/6 mice; dose 100 mg/kg): 27.13 | Lever Presses Mean (Sprague–Dawley rats; dose 30 mg/kg PO): 42.73 | Reinforcers Mean (Sprague–Dawley rats; dose 30 mg/kg PO): 13.55 | Lever Presses Mean (Sprague–Dawley rats; dose 60 mg/kg PO): 51.91 | Reinforcers Mean (Sprague–Dawley rats; dose 60 mg/kg PO): 17.91 | Lever Presses Mean (Sprague–Dawley rats; dose 100 mg/kg PO): 45.09 | Reinforcers Mean (Sprague–Dawley rats; dose 100 mg/kg PO): 19.55 | Reduction in lever presses emitted, in words (Sprague–Dawley rats; rats DRL-72-s, PO, 30–100 mg/kg): did not reach statistical significance | Reinforcers received, effect in words (Sprague–Dawley rats; rats DRL-72-s, PO, significant at 100 mg/kg (Figure 5A legend)): significant increase | Doses with antidepressant-like efficacy in the rat DRL-72 sec model (Sprague–Dawley rats; reduced lever presses with increased reinforcers): 100 mg/kg | Lever Presses Mean ([1]; dose 20 mg/kg): 162.63 | Reinforcers Mean ([1]; dose 20 mg/kg): 28.75 | Lever Presses Mean ([1]; dose 40 mg/kg): 179.25 | Reinforcers Mean ([1]; dose 40 mg/kg): 20.50 | Lever Presses Mean ([1]; dose 100 mg/kg): 158.13 | Reinforcers Mean ([1]; dose 100 mg/kg): 24.75 | Antidepressant-like effect in DRL, in words ([1]; mice lacking OX2 receptors, up to 100 mg/kg): completely abolished | Ki (human OX2 receptors [2]): 6.9 ± 0.18 nM | Kb (human OX2 receptors [3]): 1.73 ± 0.35 nM

CNC(=O)[C@@H](c1ccccc1)N1CCc2cc(OC)c(OC)cc2[C@@H]1CCc1ccc(C(F)(F)F)cc1 [Almorexant (R)]
Effect on DRL behavior, in words (C57Bl/6 mice; C57Bl/6 mice DRL-36-s, 100 mg/kg): no significant effects on behavior | Lever Presses Mean (C57Bl/6 mice; [5]): 233.00 | Reinforcers Mean (C57Bl/6 mice; [5]): 11.00 | Lever Presses Mean (Sprague–Dawley rats; [6]): 64.73 | Reinforcers Mean (Sprague–Dawley rats; [6]): 15.27 | Effect on DRL behavior, in words (Sprague–Dawley rats; rats DRL-72-s, 100 mg/kg): no effect on behavior | Lever Presses Mean [1, 5]: 112.88 | Reinforcers Mean [1, 5]: 25.13 | Reinforcers received, effect in words ([1]; mice lacking OX2 receptors, 100 mg/kg): did not significantly affect | Lever presses emitted ([1]; mice lacking OX2 receptors, DRL-36-s, 100 mg/kg): 65 % of control | Receptor binding affinity, Ki OX2 (human OX2 receptors [2]; HEK293 membranes, [125I]-orexin A, 90 min, mean ± s.e.m. (n)): inactive | Ki (human OX2 receptors [2]; read-out: Receptor binding affinity, Ki OX2, HEK293 membranes, [125I]-orexin A, 90 min, mean ± s.e.m. (n)): > 10000 nM | Functional antagonist activity, Kb hOX2 (human OX2 receptors [3]): inactive | Kb (human OX2 receptors [3]): > 10000 nM
